Data: patent publication US8710043B2, “TRPM8 antagonists and their use in treatments” (Amgen Inc., priority 2011, dated 2014)

These molecules were tested against T1, human TRPM8 (Homo sapiens, UniProt Q7Z2W7) (assay: Luminescence readout assay for measuring intracellular calcium, icilin activation). Conditions: CHO cells expressing human TRPM8, aequorin luminescence, 1 μM icilin activation; read-out: hTRPM8 IC50.
T1 construct: expressed in transfected cells; host or cells: Chinese hamster ovary (CHO) cells, T-REx tetracycline-inducible system, co-transfected with aequorin
T1 sequence (Q7Z2W7 whole entry): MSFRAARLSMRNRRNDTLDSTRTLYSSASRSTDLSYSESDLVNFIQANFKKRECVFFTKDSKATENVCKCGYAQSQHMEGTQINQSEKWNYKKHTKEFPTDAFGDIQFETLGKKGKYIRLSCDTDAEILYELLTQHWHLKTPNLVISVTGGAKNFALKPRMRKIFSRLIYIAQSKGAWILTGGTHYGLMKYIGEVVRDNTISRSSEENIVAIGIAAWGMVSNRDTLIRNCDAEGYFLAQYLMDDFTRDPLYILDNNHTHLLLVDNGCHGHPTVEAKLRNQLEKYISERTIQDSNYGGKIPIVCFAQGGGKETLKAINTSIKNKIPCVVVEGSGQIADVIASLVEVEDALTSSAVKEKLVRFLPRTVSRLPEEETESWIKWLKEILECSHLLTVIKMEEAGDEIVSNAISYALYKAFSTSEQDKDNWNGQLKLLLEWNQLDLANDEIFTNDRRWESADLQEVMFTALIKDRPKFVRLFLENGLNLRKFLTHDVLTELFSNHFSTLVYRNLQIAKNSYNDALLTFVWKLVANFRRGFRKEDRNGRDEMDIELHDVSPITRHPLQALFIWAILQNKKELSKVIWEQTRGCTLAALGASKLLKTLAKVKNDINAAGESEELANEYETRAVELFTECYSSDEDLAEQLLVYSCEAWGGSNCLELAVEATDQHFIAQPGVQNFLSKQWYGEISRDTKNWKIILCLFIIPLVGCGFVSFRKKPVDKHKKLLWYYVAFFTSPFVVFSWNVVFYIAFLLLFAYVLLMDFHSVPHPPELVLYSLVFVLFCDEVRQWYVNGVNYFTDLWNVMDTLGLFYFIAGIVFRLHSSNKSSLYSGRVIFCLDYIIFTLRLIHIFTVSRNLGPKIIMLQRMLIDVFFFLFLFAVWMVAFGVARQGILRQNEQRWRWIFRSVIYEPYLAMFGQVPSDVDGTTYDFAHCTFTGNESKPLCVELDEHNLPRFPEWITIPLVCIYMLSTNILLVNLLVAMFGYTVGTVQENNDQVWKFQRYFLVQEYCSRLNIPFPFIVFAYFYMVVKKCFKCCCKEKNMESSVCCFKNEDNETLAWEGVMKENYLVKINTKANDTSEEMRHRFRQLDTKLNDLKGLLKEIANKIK
Assay type: cell-based
Method in brief: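 The read-out was luminescence reporting intracellular calcium, recorded by a CCD-based luminometer. Compounds were preincubated for 2.5 min before agonist challenge with 1 μM icilin. Human TRPM8 was expressed in a stable T-REx CHO line, induced with 0.5 μg/mL tetracycline the day before.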
Molecule `O=C(N[C@@H](c1ccc(C(F)(F)F)cc1)c1cnccc1C(F)(F)F)c1ccc2ncccc2c1` [Example 260, (S)-N-((4-(trifluoromethyl)phenyl)(4-(trifluoromethyl)pyridin-3-yl)methyl)quinoline-6-carboxamide bis (2,2,2-trifluoroacetate)] has an IC50 of 311 nM. Work on `O=C(N[C@@H](c1ccc(C(F)(F)F)cc1)c1ncccc1F)c1n[nH]c2c1CCCC2` [Example 322, (S)-N-((3-fluoropyridin-2-yl)(4-(trifluoromethyl)phenyl)methyl)-4,5,6,7-tetrahydro-1H-indazole-3-carboxamide] yielded an IC50 of 202 nM. Work on `O=C(N[C@@H](c1cccc(F)c1)c1ncccc1C(F)(F)F)c1ccc2cccnc2c1` [Example 17, (S)-N-((3-fluorophenyl)(3-(trifluoromethyl)pyridin-2-yl)methyl)quinoline-7-carboxamide] yielded an IC50 of 230 nM. `O=C(N[C@@H](c1ccc(OC(F)(F)F)cc1)c1ncccc1F)c1ccc2nccn2c1` [Example 89] gave an IC50 of 10.3 nM. With `Cn1cc(C(=O)N[C@@H](c2ccc(OC(F)(F)F)cc2)c2ccccn2)ccc1=O` [Example 378, (S)-1-methyl-6-oxo-N-(pyridin-2-yl(4-(trifluoromethoxy)phenyl)methyl)-1,6-dihydropyridine-3-carboxamide] the IC50 was 50.3 nM. `O=C(N[C@@H](c1ccc(Cl)c(Cl)c1)c1ncccc1F)c1ccc(=O)[nH]c1` [Example 250, (S)-N-((3,4-dichlorophenyl)(3-fluoropyridin-2-yl)methyl)-6-oxo-1,6-dihydropyridine-3-carboxamide 2,2,2-trifluoroacetate] was tested, and the IC50 was 19.2 nM. `COc1cccc2cc([C@H](NC(=O)c3ccc4cccnc4c3)c3ncccc3C(F)(F)F)cnc12` [Example 23, (S)-N-((8-methoxyquinolin-3-yl)(3-(trifluoromethyl)pyridin-2-yl)methyl)quinoline-7-carboxamide] gave an IC50 of 1060 nM. `COC(=O)c1ccc(C(=O)N[C@@H](c2ccc(C(F)(F)F)cc2)c2ncccc2C(F)(F)F)cc1` [Example 140, (S)-methyl 4-(((4-(trifluoromethyl)phenyl)(3-(trifluoro-methyl)pyridin-2-yl)methyl)carbamoyl)benzoate] gave an IC50 of 52.7 nM. With `COc1ccc([C@H](NC(=O)c2ccc(=O)n(C)c2)c2ncccc2F)cc1` [Example 343, (S)-N-((3-fluoropyridin-2-yl)(4-methoxyphenyl)methyl)-1-methyl-6-oxo-1,6-dihydropyridine-3-carboxamide] the IC50 was 1480 nM. `O=C(N[C@@H](c1ccc(OC(F)(F)F)cc1)c1ncccc1F)c1ccc2[nH]c(=O)oc2c1` [Example 80, (S)-N-((3-fluoropyridin-2-yl)(4-(trifluoromethoxy)phenyl)methyl)-2-oxo-2,3-dihydrobenzo[d]oxazole-6-carboxamide] was tested, and the IC50 was 23.1 nM. `O=C(N[C@@H](c1ccc(C(F)(F)F)cc1)c1ncccc1F)c1ccc2[nH]c(=O)ccc2c1` [Example 104, (S)-N-((3-fluoropyridin-2-yl)(4-(trifluoromethyl)phenyl)methyl)-2-oxo-1,2-dihydroquinoline-6-carboxamide] showed an IC50 of 6.2 nM. In the case of `O=C(NC(c1ccc(OC(F)(F)F)c(F)c1)c1c(F)cccc1F)c1ccc(=O)[nH]c1` (stereo not shown) [Example 418, N-((2,6-difluorophenyl)(3-fluoro-4-(trifluoromethoxy)phenyl)methyl)-6-oxo-1,6-dihydropyridine-3-carboxamide], the IC50 is reported as 65 nM. For `CN1C(=O)c2ccc(C(=O)N[C@@H](c3ccc(C(F)(F)F)cc3)c3ncccc3C(F)(F)F)cc2C1=O` [Example 270, (S)-2-Methyl-1,3-dioxo-N-((4-(trifluoromethyl)phenyl)(3-(trifluoromethyl)pyridin-2-yl)methyl)isoindoline-5-carboxamide], the IC50 was 19.1 nM. For `O=C1Cc2ccc(C(=O)N[C@@H](c3ccc(OC(F)(F)F)cc3)c3ncccc3F)cc2N1` [Example 90, (S)-N-((3-fluoropyridin-2-yl)(4-(trifluoromethoxy)phenyl)methyl)-2-oxoindoline-6-carboxamide], the IC50 was 6.2 nM. With `O=C(O)c1ccc(C(=O)N[C@@H](c2ccc(C(F)(F)F)cc2)c2ncccc2F)nc1` [Example 280, (S)-6-(((3-Fluoropyridin-2-yl)(4-(trifluoromethyl)phenyl)-methyl)carbamoyl)nicotinic Acid] the IC50 was 22.1 nM. With `COC(C)(C)C(=O)N[C@@H](c1ccc(C(F)(F)F)cc1)c1ncccc1C(F)(F)F` [Example 240, (S)-2-methoxy-2-methyl-N-((4-(trifluoromethyl)phenyl)(3-(trifluoromethyl)pyridin-2-yl)methyl)propanamide] the IC50 was 81 nM. For `O=C(N[C@@H](c1ccc(OC(F)(F)F)c(F)c1)c1ncccc1C(F)(F)F)c1ccc(=O)[nH]c1` [Example 383, (S)-N-((3-fluoro-4-(tritluoromethoxy)phenyl)(3-(trifluoromethyl)pyridin-2-yl)methyl)-6-oxo-1,6-dihydropyridine-3-carboxamide], the IC50 was 7.9 nM. In the case of `CN(C)c1ccc(C(=O)N[C@@H](c2ccc(C(F)(F)F)cc2)c2ncccc2C(F)(F)F)cc1` [Example 196, (S)-4-(dimethylamino)-N-((4-(trifluoromethyl)phenyl)(3-(trifluoromethyl)pyridin-2-yl)methyl)benzamide], the IC50 is reported as 67.1 nM. `CCc1ccc([C@H](NC(=O)c2ccc3cccnc3c2)c2ncccc2C(F)(F)F)cc1` [Example 115, (S)-N-((4-ethylphenyl)(3-(trifluoromethyl)pyridin-2-yl)methyl)quinoline-7-carboxamide] showed an IC50 of 56.2 nM. In the case of `O=C(N[C@@H](c1ccc(OC(F)(F)F)c(F)c1)c1ncccc1Br)c1ccc2oc(=O)[nH]c2c1` [Example 384, (S)-N-((3-bromopyridin-2-yl)(3-fluoro-4-(trifluoromethoxy)phenyl)methyl)-2-oxo-2,3-dihydrobenzo[d]oxazole-5-carboxamide], the IC50 is reported as 5.8 nM. Molecule `O=C(N[C@@H](c1ccc(C(F)(F)F)cc1)c1ncccc1F)c1ccc(O)cn1` [Example 173, (S)-N-((3-fluoropyridin-2-yl)(4-(trifluoromethyl)phenyl)methyl)-5-hydroxypicolinamide] has an IC50 of 15.3 nM. `CS(=O)(=O)c1ccc(C(=O)N[C@@H](c2ccc(C(F)(F)F)cc2)c2ncccc2F)cc1` [Example 217, (S)-N-((3-fluoropyridin-2-yl)(4-(trifluoromethyl)phenyl)methyl)-4-(methylsulfonyl)benzamide] gave an IC50 of 147 nM. For `O=C(N[C@@H](c1ccc(C(F)(F)F)cc1)c1ncccc1F)c1cccs1` [Example 375, (S)-N-((3-fluoropyridin-2-yl)(4-(trifluoromethyl)phenyl)methyl)thiophene-2-carboxamide], the IC50 was 30.3 nM. Work on `CN(C)c1ccc(C(=O)N[C@@H](c2ccc(C(F)(F)F)cc2)c2ncccc2C(F)(F)F)cn1` [Example 262, (S)-6-(Dimethylamino)-N-((4-(trifluoromethyl)phenyl)(3-(trifluoromethyl)pyridin-2-yl)methyl)nicotinamide] yielded an IC50 of 114 nM. `O=C(N[C@@H](c1ccc(OC(F)(F)F)c(F)c1)c1ncccc1F)c1c[nH]c(=O)cn1` [Example 353, (S)-N-((3-fluoro-4-(trifluoromethoxy)phenyl)(3-fluoropyridin-2-yl)methyl)-5-oxo-4,5-dihydropyrazine-2-carboxamide] gave an IC50 of 27.7 nM.
